Assays:
[1] = test system: B. subtilis 168; assay: fitness (endpoint OD595 vs no drug) (fraction); higher = more growth
Summary of the method: (§1)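 In 384-well plates at 37 °C, cultures began at OD595 0.01 in 30 µl, with 55 µl used for S. pneumoniae. OD595 readings every 30 min for 14 h were corrected by the first reading. Fitness divides the stationary-phase transition optical density by the robust mean of no-drug control wells. The result is capped at 1.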

[2] = test system: S. aureus DSM 20231; assay: as above
Summary of the method: as §1

[3] = test system: S. aureus Newman; assay: as above
Summary of the method: as §1

[4] = test system: B. subtilis 168; assay: Bliss interaction score (quartile over a dose matrix) (fitness difference); higher = more antagonism (negative = synergy)
Summary of the method: (§2)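 Growth in each well was taken as OD595 at entry into stationary phase. Dividing by the plate's robust no-drug mean and capping at 1 gave fitness, and single-drug fitness was inferred from the combination data. The Bliss score, observed minus product-expected fitness, is summarised by quartiles over technical, biological and donor/recipient replicates.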

[5] = test system: S. aureus DSM 20231; assay: as above
Summary of the method: as §2

[6] = test system: S. aureus Newman; assay: as above
Summary of the method: as §2

[7] = test system: S. pneumoniae D39V; assay: as above
Summary of the method: as §2
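Wherever Bliss interaction score (quartile over a dose matrix) is given: first quartile when negative (synergy) and third quartile when positive (antagonism).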

CC[C@H]1OC(=O)[C@H](C)[C@@H](O[C@H]2C[C@@](C)(OC)[C@@H](O)[C@H](C)O2)[C@H](C)[C@@H](O[C@@H]2O[C@H](C)C[C@H](N(C)C)[C@H]2O)[C@](C)(O)C[C@@H](C)CN(C)[C@H](C)[C@@H](O)[C@]1(C)O [Azithromycin] + Cc1ncc([N+](=O)[O-])n1CCO [Metronidazole]
fitness
Settings	partner 0.625 µg/mL	partner 1.25 µg/mL	partner 2.5 µg/mL
[1], first compound 0.25 µg/mL	0.917	0.916	0.897
[1], first compound 0.5 µg/mL	–	–	0.878
[2], first compound 0.125 µg/mL	0.932	0.993	≥ 1
[2], first compound 0.25 µg/mL	0.928	0.982	0.949
[3], first compound 0.125 µg/mL	0.896	0.915	0.947
[3], first compound 0.25 µg/mL	0.831	0.906	0.823
[3], first compound 0.5 µg/mL	0.73	–	0.67

fitness, [3], one replicate
Settings	first compound 0.125 µg/mL	first compound 0.25 µg/mL	first compound 0.5 µg/mL
partner 0.781 µg/mL	0.882	0.942	0.659
partner 1.562 µg/mL	0.875	0.924	0.642
partner 3.124 µg/mL	0.859	0.928	0.635

Settings	Bliss interaction score
[4]	0.0931
[5]	0.0787
[6]	-0.0641
[7]	0.102

CC[C@H]1OC(=O)[C@H](C)[C@@H](O[C@H]2C[C@@](C)(OC)[C@@H](O)[C@H](C)O2)[C@H](C)[C@@H](O[C@@H]2O[C@H](C)C[C@H](N(C)C)[C@H]2O)[C@](C)(O)C[C@@H](C)CN(C)[C@H](C)[C@@H](O)[C@]1(C)O [Azithromycin] + CN[C@@H]1[C@H](O)[C@H](NC)[C@H]2O[C@@]3(O)C(=O)C[C@@H](C)O[C@H]3O[C@@H]2[C@H]1O [Spectinomycin]
fitness
Settings	partner 2 µg/mL	partner 4 µg/mL	partner 8 µg/mL	partner 16 µg/mL
[1], first compound 0.25 µg/mL	0.918	0.895	0.815	–
[1], first compound 0.5 µg/mL	0.849	0.816	–	–
[2], first compound 0.125 µg/mL	–	0.856	0.774	0.755
[2], first compound 0.25 µg/mL	–	0.788	0.771	0.644
[3], first compound 0.125 µg/mL	–	0.84	0.849	0.821
[3], first compound 0.25 µg/mL	–	0.818	0.812	0.689

fitness, one replicate
Settings	first compound 0.125 µg/mL	first compound 0.25 µg/mL	first compound 0.5 µg/mL
[2], partner 32 µg/mL	0.658	0.348	0.0388
[2], partner 64 µg/mL	0.0503	0.0326	0.0093
[3], partner 32 µg/mL	0.401	0.165	0.0078
[3], partner 64 µg/mL	0.0378	0.0151	0.003

Settings	Bliss interaction score
[4]	-0.0884
[5]	-0.107
[6]	-0.124
[7]	-0.0642

CC[C@H]1OC(=O)[C@H](C)[C@@H](O[C@H]2C[C@@](C)(OC)[C@@H](O)[C@H](C)O2)[C@H](C)[C@@H](O[C@@H]2O[C@H](C)C[C@H](N(C)C)[C@H]2O)[C@](C)(O)C[C@@H](C)CN(C)[C@H](C)[C@@H](O)[C@]1(C)O [Azithromycin] + COc1cccc2c1C(=O)c1c(O)c3c(c(O)c1C2=O)C[C@@](O)(C(=O)CO)C[C@@H]3O[C@H]1C[C@H](N)[C@H](O)[C@H](C)O1 [Doxorubicin]
fitness
Settings	partner 0.625 µg/mL	partner 1.25 µg/mL	partner 2.5 µg/mL
[1], first compound 0.25 µg/mL	0.964	0.92	0.791
[1], first compound 0.5 µg/mL	0.879	0.847	0.767
[2], first compound 0.125 µg/mL	0.811	0.794	0.781
[2], first compound 0.25 µg/mL	0.811	0.824	0.778
[2], first compound 0.5 µg/mL	0.62	0.672	0.569
[3], first compound 0.125 µg/mL	0.777	0.775	0.735
[3], first compound 0.25 µg/mL	0.827	0.779	0.77
[3], first compound 0.5 µg/mL	0.659	0.665	0.561

[1], first compound 2 µg/mL, one replicate
Settings	fitness
partner 0.625 µg/mL	0.358
partner 1.25 µg/mL	0.176
partner 2.5 µg/mL	0.0297

Settings	Bliss interaction score
[4]	0.164
[5]	0.115
[6]	0.0458
[7]	-0.0571

Reference: the supplement of paper PMC10627819
